pIC50: −log10 of the molar value. Some results are limits rather than exact numbers.

This is an account of results in US20210122739A1, “NOVEL SULFONAMIDE CARBOXAMIDE COMPOUNDS” (Inflazome Limited, priority 2017, published 2021).

For series [1], the target named is T1, NLRP3 (Homo sapiens, UniProt Q96P20). The series is described as follows: Human whole blood IL1β release assay. The following applies: 1 μg/ml LPS, nigericin 10 μM, IL-1β by AlphaLisa, read-out: HWB IC50. The class given is cell-based. Also noted: Plate out 80 μl of whole blood containing 1 μg/ml of LPS; from tissue; host or cells: human whole blood from healthy donors, LPS-primed, nigericin-stimulated.
T1 sequence (Q96P20 whole entry): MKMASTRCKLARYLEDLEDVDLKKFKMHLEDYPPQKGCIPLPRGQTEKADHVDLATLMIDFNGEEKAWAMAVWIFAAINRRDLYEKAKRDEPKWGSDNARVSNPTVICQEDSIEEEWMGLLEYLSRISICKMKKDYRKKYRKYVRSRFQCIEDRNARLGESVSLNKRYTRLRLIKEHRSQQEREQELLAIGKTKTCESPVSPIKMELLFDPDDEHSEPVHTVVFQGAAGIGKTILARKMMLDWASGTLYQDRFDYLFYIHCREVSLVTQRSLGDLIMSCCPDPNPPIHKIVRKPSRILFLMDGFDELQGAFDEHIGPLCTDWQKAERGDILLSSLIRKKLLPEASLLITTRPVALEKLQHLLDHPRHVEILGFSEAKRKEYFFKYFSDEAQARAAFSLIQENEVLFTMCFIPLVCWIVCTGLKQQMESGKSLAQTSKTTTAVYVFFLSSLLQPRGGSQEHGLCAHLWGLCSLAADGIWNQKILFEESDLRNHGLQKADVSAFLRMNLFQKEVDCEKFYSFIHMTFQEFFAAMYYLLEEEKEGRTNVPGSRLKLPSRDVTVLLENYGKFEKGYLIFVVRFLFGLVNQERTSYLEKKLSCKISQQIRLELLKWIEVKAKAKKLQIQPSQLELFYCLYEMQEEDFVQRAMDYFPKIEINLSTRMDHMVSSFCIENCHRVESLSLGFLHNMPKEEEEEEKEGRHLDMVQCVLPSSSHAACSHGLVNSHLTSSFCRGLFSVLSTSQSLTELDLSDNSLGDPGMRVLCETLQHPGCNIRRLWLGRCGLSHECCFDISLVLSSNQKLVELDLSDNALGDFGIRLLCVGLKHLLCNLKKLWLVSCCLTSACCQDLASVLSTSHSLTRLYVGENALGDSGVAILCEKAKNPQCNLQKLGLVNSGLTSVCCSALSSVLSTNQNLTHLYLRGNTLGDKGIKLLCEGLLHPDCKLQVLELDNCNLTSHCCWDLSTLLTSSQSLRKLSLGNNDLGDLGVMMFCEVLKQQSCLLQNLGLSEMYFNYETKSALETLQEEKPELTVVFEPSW

In series [2] the target is T1, NLRP3. Description: THP-1 cells pyroptosis assay. It counts as cell-based. Also noted: Seed THP-1 cells (25,000 cells/well) containing 1.0 μg/ml LPS; host or cells: THP-1 cells, LPS-primed, nigericin-stimulated. The conditions noted are these: 1.0 μg/ml LPS, nigericin 5 μM, resazurin readout. An outline of the steps:
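THP-1 cells (25,000/well, serum-free RPMI) primed with 1 μg/ml LPS were given compound (8-point half-log series, top 10 μM; 0.1% DMSO) for 3 h at 37 °C, then 5 μM nigericin for 1 h. Viability read by 100 μM resazurin fluorescence (Ex 560/Em 590) after 1–2 h; IC50 from four-parameter nonlinear regression.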

The nature of series [3]: PK protocol: pharmacokinetic parameters in male Sprague Dawley rats. The class given is in vivo. The following applies: plasma, rat; for Vd: read-out: Vdss. The protocol: Pharmacokinetic parameters were determined in male Sprague Dawley rats (Charles River, UK, 250-350 g; or Vital River Laboratory Animal Technology Co Ltd, Beijing, China, 7-9 weeks old). Animals were individually housed during the study and maintained under a 12 h light/dark cycle. Animals had free access to food and water except that some orally dosed animals were food deprived overnight prior to the study.
For intravenous administration, compounds were formulated as a solution in water or DMSO:PBS [10:90] in 2 mL/kg dosing volume and administered via tail vein. For oral administration, compounds were formulated as a solution in water or DMSO:water [10:90] in 5 mL/kg dosing volume and administered orally.
Serial blood samples (about 120-300 μL) were taken from each animal at each of 8 time-points post dose (0.083, 0.25, 0.5, 1, 2, 4, 8 and 24 h) or at each of 12 time-points post dose (0.03, 0.1, 0.17, 0.25, 0.5, 1, 2, 4, 6, 8, 12 and 24 h) or pre-dose and at each of 9 time-points post dose (0.25, 0.5, 1, 2, 4, 6, 8, 12 and 24 h). Samples were held on ice for no longer than 30 minutes before centrifugation (10,000 rpm (8,385 g) for 3 minutes; or 5,696 rpm (3,000 g) for 15 minutes) for plasma generation. Plasma was frozen on dry ice prior to bioanalysis. PK parameters were generated from LC-MS/MS data using Dotmatics or Phoenix WinNonlin 6.3 software.

Setting [4] is: oral administration, dose per compound in Dose column (3 or 5 mg/kg).
[5] abbreviates: intravenous administration, dose per compound in Dose column (0.83-5.05 mg/kg).

For the compound `COCCN(C)C(=O)c1cc(S(=O)(=O)NC(=O)Nc2c3c(cc4c2CCC4)CCC3)nn1C` [Example 27, 3-(N-((1,2,3,5,6,7-Hexahydro-s-indacen-4-yl)carbamoyl)sulfamoyl)-N-(2-methoxyethyl)-N,1-dimethyl-1H-pyrazole-5-carboxamide], the pIC50 in series [1] is 6.10 to 6.40. The same compound showed a pIC50 in series [2] of 6.80 to 7.40. For the same compound, in series [3] (setting [4]), the CL/F worked out at 21.5 mL/min/kg, the Tmax amounted to 0.08 h, the bioavailability was determined as 67% and the half-life is 4.9 h.

As for `CC(C)n1nc(S(=O)(=O)NC(=O)Nc2c3c(cc4c2CCC4)CCC3)cc1C(=O)N1CCC1` [Example 31, 5-(Azetidine-1-carbonyl)-N-((1,2,3,5,6,7-hexahydro-s-indacen-4-yl)carbamoyl)-1-isopropyl-1H-pyrazole-3-sulfonamide], the negative logarithm of the IC50 (pIC50) in series [1] was 5.80 to 6.10. For the same compound, in series [2], the pIC50 is 6.80 to 7.40. Also, in series [3] (setting [5]), the AUC turned out to be 303 ng·h/mL, the clearance stood at 55.3 mL/min/kg, the half-life is 1.6 h and the Vd worked out at 1.66 L/kg.

For the compound `CC(C)c1cc(F)cc(C(C)C)c1NC(=O)NS(=O)(=O)c1cc(C(=O)N2CCC2)n(C)n1` [Example 45, 5-(Azetidine-1-carbonyl)-N-((4-fluoro-2,6-diisopropylphenyl)carbamoyl)-1-methyl-1H-pyrazole-3-sulfonamide], the pIC50 in series [1] was greater than 6.40. This compound gave a negative logarithm of the IC50 (pIC50) in series [2] of 6.80 to 7.40. Also, in series [3] (setting [5]), the AUC amounted to 415 ng·h/mL, the clearance was determined as 40.3 mL/min/kg, the half-life was 6.4 h and the Vd was determined as 7.96 L/kg.

With `CC(C)c1cc(F)cc(C(C)C)c1NC(=O)NS(=O)(=O)c1cc(C(=O)N(C)C)n(C)n1` [Example 60, 3-(N-((4-Fluoro-2,6-diisopropylphenyl)carbamoyl)sulfamoyl)-N,N,1-trimethyl-1H-pyrazole-5-carboxamide], the pIC50 in series [1] is greater than 6.40. The compound further had a pIC50 in series [2] of 6.19 to 6.80. Also, in series [3] (setting [5]), the exposure (AUC) is 283 ng·h/mL, the clearance was 59.2 mL/min/kg, the half-life was 3.3 h and the Vd is 4.08 L/kg. Also, in series [3] (setting [4]), the AUC amounted to 770 ng·h/mL, the CL/F turned out to be 110 mL/min/kg, the Cmax is 495 ng/mL and the Tmax was determined as 0.17 h. In series [3] (setting [4]), this compound showed a bioavailability of 54.3% and a half-life of 9.7 h.

For the compound `CCN(C)C(=O)c1cc(S(=O)(=O)NC(=O)Nc2c3c(cc4c2CCC4)CCC3)nn1C` [Example 62, N-Ethyl-3-(N-((1,2,3,5,6,7-hexahydro-s-indacen-4-yl)carbamoyl)sulfamoyl)-N,1-dimethyl-1H-pyrazole-5-carboxamide], in series [1], the negative-log IC50 (pIC50) is 6.10 to 6.40. Also, in series [2], the negative logarithm of the IC50 (pIC50) was 6.80 to 7.40. Moreover, in series [3] (setting [5]), the AUC was found to be 1720 ng·h/mL, the clearance worked out at 25 mL/min/kg, the half-life was 0.1 h and the Vd was determined as 0.24 L/kg.

Take `CC(C)c1cccc(C(C)C)c1NC(=O)NS(=O)(=O)c1cc(C(=O)N(C)C)n(C)n1` [Example 67, 3-(N-((2,6-Diisopropylphenyl)carbamoyl)sulfamoyl)-N,N,1-trimethyl-1H-pyrazole-5-carboxamide]: the negative logarithm of the IC50 (pIC50) in series [1] was greater than 6.40. Moreover, the pIC50 in series [2] was 6.19 to 6.80. Also, in series [3] (setting [5]), the exposure (AUC) was 334 ng·h/mL, the clearance is 48.7 mL/min/kg, the half-life is 0.5 h and the Vd stood at 0.99 L/kg.

On to `CC(C)c1cc(Cl)cc(C(C)C)c1NC(=O)NS(=O)(=O)c1cc(C(=O)N(C)C)n(C)n1` [Example 68, 3-(N-((4-Chloro-2,6-diisopropylphenyl)carbamoyl)sulfamoyl)-N,N,1-trimethyl-1H-pyrazole-5-carboxamide], for which the pIC50 in series [1] was 5.49 to 5.80. Also, the pIC50 in series [2] was 6.80 to 7.40. Moreover, in series [3] (setting [5]), the AUC was found to be 353 ng·h/mL, the clearance is 161 mL/min/kg, the half-life was 1.3 h and the Vd is 10.6 L/kg.

Take `CN(C)C(=O)c1cc(S(=O)(=O)NC(=O)Nc2c3c(cc4c2CCC4)CCC3)nn1C` [Example 69, 3-(N-((1,2,3,5,6,7-Hexahydro-s-indacen-4-yl)carbamoyl)sulfamoyl)-N,N,1-trimethyl-1H-pyrazole-5-carboxamide]: in series [1], the pIC50 is greater than 6.40. In series [2], this compound gave a pIC50 of 6.80 to 7.40. In series [3] (setting [5]), the AUC came out at 3390 ng·h/mL, the clearance is 24.8 mL/min/kg, the half-life is 25.3 h and the Vd worked out at 17.8 L/kg. In series [3] (setting [4]), the AUC was 1050 ng·h/mL, the CL/F was 49.5 mL/min/kg, the Cmax was 600 ng/mL and the Tmax amounted to 0.25 h. In series [3] (setting [4]), the bioavailability is 62% and the half-life is 3.4 h.
